Our source for the IC50 values is patent US9556187B2, “Substituted pyrrolo[3′,2′:5,6]pyrido[4,3-d]pyrimidines and JAK inhibitors comprising the same” (priority 2011, dated 2017).

The structures appear in SMILES notation.

Common to all, as to type: biochemical
Assay [1] deals with T1, JAK1 (Homo sapiens (Human), UniProt P23458). As to the kind of experiment: Enzyme assay (LANCE Ultra ULight-JAK1 Peptide), JAK1. Particulars: ATP 100 μM.
The target of assay [2] is T2, JAK2 (Homo sapiens (Human), UniProt O60674). The assay can be described thus: Enzyme assay (LANCE Ultra ULight-JAK1 Peptide), JAK2. Particulars: ATP 100 μM.
Assay [3] has as its target JAK3 (Homo sapiens (Human), UniProt P52333). As to the kind of experiment: Enzyme assay, JAK3 (Assay Example^b 1).
Protocol: (§1) JAK1, JAK2, JAK3 and Tyk2 were purchased from Carna Biosciences, Inc. As the substrate, LANCE Ultra ULight-JAK1 Peptide (manufactured by PerkinElmer Co., Ltd. (PE)) was used. Dilute solutions of compounds and enzymes in assay buffer (50 mM HEPES pH7.5, 1 mM EGTA, 1 mM MgCl2, 2 mM DTT, 0.01% Tween20) were dispensed into wells of a 384-well black plate. After 5 minutes of preincubation, dilute solutions of the substrate and ATP (adenosine triphosphate) were added at a final concentration of 100 μM, and the plate was incubated at room temperature for 2 hours. After addition of a termination reagent containing EDTA (ehylenediamine tetraacetic acid) at a final concentration of 10 mM, LANCE Eu-W1024 Anti-phosphotyrosine (PT66) (manufactured by PE) was added, and after 1 hour of incubation, the fluorescences were measured with ARVO-HTS. From the plot of logarithm of a compound concentration and inhibitory activity, the IC50 was calculated.
For assay [4], the target named is T2, JAK2. The assay can be described thus: Enzyme assay, JAK2 (Assay Example^b 1). Particulars: ATP 100 μM.
Protocol: as §1
For assay [5], the target named is T3, Tyk2 (Homo sapiens (Human), UniProt P29597). As to the kind of experiment: Enzyme assay, Tyk2 (Assay Example^b 1). Particulars: ATP 100 μM.
Protocol: as §1
For assay [6], the target named is T3, Tyk2. As to the kind of experiment: Enzyme assay (LANCE Ultra ULight-JAK1 Peptide), Tyk2. Conditions: ATP 100 μM. On the technique in general: TR-FRET usually uses a lanthanide donor and a delayed reading to cut background.
The target of assay [7] is T1, JAK1. The assay can be described thus: Enzyme assay, JAK1 (Assay Example^b 1). Particulars: ATP 100 μM.
Protocol: as §1

T1 sequence (P23458 whole entry): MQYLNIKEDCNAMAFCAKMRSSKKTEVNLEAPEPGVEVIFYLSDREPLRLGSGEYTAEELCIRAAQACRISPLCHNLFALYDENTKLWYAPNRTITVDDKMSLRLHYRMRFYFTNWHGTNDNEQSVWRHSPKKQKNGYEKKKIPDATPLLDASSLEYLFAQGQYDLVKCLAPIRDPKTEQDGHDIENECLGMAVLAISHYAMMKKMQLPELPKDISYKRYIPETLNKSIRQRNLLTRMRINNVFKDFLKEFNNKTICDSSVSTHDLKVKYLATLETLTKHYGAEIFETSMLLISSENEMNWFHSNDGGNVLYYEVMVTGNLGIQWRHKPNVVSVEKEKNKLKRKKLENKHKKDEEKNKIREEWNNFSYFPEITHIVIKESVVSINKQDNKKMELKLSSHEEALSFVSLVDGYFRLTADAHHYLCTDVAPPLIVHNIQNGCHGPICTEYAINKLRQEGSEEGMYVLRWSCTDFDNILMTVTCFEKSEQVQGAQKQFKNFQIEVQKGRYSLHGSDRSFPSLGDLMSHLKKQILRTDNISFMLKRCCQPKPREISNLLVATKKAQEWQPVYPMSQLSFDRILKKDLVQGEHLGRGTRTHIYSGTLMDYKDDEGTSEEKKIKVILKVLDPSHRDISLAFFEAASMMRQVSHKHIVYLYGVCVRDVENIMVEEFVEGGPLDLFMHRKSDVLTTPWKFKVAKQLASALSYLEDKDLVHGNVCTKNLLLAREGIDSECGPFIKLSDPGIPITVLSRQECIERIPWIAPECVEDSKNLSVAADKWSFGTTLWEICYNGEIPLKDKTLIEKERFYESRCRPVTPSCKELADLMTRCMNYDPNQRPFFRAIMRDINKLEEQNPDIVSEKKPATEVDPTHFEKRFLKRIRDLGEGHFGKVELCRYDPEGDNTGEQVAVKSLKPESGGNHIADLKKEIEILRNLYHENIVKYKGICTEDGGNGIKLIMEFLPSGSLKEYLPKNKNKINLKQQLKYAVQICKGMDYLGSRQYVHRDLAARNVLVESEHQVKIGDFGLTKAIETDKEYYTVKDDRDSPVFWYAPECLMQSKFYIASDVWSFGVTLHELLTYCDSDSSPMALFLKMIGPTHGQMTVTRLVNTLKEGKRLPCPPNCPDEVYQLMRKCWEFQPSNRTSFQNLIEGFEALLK
T3 sequence (P29597 whole entry): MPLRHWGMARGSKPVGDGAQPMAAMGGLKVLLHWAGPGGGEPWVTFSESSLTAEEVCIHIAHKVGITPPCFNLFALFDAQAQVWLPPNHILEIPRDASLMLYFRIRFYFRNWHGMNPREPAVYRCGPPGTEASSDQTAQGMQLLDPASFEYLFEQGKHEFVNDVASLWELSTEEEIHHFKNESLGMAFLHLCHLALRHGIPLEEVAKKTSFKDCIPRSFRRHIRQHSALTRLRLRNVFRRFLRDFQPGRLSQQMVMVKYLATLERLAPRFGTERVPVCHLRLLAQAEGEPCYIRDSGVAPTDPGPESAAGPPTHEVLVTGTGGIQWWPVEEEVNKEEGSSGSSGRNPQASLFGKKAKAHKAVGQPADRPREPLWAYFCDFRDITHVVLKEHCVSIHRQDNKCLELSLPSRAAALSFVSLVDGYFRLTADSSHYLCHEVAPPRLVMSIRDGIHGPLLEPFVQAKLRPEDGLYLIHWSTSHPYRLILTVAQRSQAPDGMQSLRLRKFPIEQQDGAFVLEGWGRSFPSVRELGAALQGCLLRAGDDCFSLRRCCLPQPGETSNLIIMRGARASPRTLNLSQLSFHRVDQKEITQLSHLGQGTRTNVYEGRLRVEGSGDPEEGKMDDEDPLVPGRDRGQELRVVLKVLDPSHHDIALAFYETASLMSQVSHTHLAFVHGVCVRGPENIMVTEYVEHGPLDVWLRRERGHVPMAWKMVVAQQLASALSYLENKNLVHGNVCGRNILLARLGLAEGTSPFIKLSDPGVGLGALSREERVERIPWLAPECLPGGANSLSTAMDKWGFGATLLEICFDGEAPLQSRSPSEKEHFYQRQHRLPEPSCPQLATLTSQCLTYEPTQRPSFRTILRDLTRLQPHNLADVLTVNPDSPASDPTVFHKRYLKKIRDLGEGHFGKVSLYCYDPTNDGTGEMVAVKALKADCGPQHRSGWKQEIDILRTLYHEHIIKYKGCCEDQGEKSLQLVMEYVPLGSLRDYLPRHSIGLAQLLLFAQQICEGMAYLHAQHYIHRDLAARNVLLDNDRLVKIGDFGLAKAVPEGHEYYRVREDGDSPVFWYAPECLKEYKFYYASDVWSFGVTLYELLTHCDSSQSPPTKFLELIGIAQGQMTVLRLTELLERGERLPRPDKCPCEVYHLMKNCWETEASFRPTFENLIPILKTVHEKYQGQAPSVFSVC
JAK3, sequence (P52333 whole entry): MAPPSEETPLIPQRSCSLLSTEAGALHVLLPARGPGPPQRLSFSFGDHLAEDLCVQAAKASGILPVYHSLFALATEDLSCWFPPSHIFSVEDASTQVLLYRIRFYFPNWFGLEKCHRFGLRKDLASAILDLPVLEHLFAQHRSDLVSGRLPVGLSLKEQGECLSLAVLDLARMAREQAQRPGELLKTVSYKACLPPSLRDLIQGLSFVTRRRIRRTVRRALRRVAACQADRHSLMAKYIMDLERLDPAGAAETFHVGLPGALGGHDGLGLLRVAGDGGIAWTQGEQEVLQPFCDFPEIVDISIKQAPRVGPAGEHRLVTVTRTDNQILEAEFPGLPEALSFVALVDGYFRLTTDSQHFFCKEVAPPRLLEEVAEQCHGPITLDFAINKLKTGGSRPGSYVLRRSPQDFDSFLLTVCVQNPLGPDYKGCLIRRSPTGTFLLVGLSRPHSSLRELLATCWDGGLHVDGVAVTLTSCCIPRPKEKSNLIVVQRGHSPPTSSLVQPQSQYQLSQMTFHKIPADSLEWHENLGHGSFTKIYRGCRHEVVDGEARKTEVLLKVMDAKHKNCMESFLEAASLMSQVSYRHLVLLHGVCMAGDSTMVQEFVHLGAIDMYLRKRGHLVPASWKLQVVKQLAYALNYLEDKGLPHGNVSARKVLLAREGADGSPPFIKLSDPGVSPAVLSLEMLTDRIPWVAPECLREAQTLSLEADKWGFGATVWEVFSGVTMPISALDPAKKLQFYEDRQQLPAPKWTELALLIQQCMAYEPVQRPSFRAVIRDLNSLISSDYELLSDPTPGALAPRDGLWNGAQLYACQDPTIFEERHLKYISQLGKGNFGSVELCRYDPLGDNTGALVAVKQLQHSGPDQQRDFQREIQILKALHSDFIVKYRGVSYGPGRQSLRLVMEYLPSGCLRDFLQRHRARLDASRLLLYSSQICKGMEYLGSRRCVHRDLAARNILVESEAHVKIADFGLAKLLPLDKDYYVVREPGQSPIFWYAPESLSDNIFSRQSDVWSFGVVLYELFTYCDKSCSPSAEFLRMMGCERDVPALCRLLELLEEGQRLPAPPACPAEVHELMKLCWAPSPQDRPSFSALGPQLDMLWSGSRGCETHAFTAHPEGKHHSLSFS

One may read the IC50 as the point on the concentration scale where inhibition reaches its midpoint. A higher IC50 goes with a need for much substance. `CC(c1ccccc1)N1CCC(c2nnn3cnc4[nH]ccc4c23)CC1` (racemic) [Ex 245]: the IC50 in assay [1] (Synthetic Examples^a) came out at 0.017 µM; in assay [2] (Synthetic Examples^a), 0.062 µM.

Compound `C[C@@H]1CCN(Cc2cccc(F)c2F)C[C@@H]1n1ccc(=O)c2cnc3[nH]ccc3c21` (racemic) [Synthetic Example^b 6a, rac-1-[(3R,4R)-1-(2,3-Difluorobenzyl)-4-methylpiperidin-3-yl]-1H-pyrrolo[2,3-h][1,6]naphthyridin-4(7H)-one] returned an IC50 in assay [3] of 31 nM.

As for `C[C@@H]1CCN(C)C[C@@H]1n1ccc(=O)c2cnc3[nH]ccc3c21` (racemic) [Synthetic Example^b 6b, rac-1-[(3R,4R)-1,4-Dimethylpiperidin-3-yl]-1H-pyrrolo[2,3-h][1,6]naphthyridin-4(7H)-one], the values for the IC50 in assay [4], in assay [3] and in assay [5] were 0.38 µM, 250 nM and 3.9 µM, respectively.

On to `CC1(C)CCC(c2nnn3cnc4[nH]ccc4c23)CC1` [Ex 64], for which the IC50 in assay [1] is 0.033 µM; in assay [2], 0.12 µM; in assay [6] it was 0.31 µM; in assay [7], 0.012 µM.

Take `c1ccc2sc(CN3CCC(c4nnn5cnc6[nH]ccc6c45)CC3)nc2c1` [Ex 232]: the IC50 amounted to 0.0053 µM in assay [1] (Synthetic Examples^a), 0.033 µM in assay [2] (Synthetic Examples^a) and 0.74 µM in assay [6] (Synthetic Examples^a).

Turning to `Brc1nc(CN2CCC(c3nnn4cnc5[nH]ccc5c34)CC2)sc1Br` [Ex 233], the IC50 in assay [1] (Synthetic Examples^a) turned out to be 0.021 µM; in assay [2] (Synthetic Examples^a), 0.071 µM.
